Measurements as given in PubChem BioAssay (NCI).
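Tested at 5 concentrations; 48 h exposure; 96-well plates; endpoints linearly interpolated, else capped at highest concentration. Abbreviation: GI50, concentration required for 50% inhibition of growth. TGI: concentration producing complete growth inhibition.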

What was measured:
Assay in all cases: inhibition of tumour cell growth, NCI panel, 48 h
SW-620 colon = test system: SW-620 colon
ACHN renal = test system: ACHN renal
SK-MEL-5 melanoma = test system: SK-MEL-5 melanoma
EKVX NSCLC = test system: EKVX NSCLC
MALME-3M melanoma = test system: MALME-3M melanoma
SNB-19 CNS = test system: SNB-19 CNS
KM12 colon = test system: KM12 colon
RXF 393 renal = test system: RXF 393 renal
COLO 205 colon = test system: COLO 205 colon
HOP-92 NSCLC = test system: HOP-92 NSCLC

Row | SMILES | GI50 (SW-620 colon) [µM] | TGI (SW-620 colon) [µM] | GI50 (ACHN renal) [µM] | TGI (ACHN renal) [µM] | GI50 (SK-MEL-5 melanoma) [µM] | TGI (SK-MEL-5 melanoma) [µM] | GI50 (EKVX NSCLC) [µM] | TGI (EKVX NSCLC) [µM] | GI50 (MALME-3M melanoma) [µM] | TGI (MALME-3M melanoma) [µM] | GI50 (SNB-19 CNS) [µM] | TGI (SNB-19 CNS) [µM] | GI50 (KM12 colon) [µM] | TGI (KM12 colon) [µM] | GI50 (RXF 393 renal) [µM] | TGI (RXF 393 renal) [µM] | GI50 (COLO 205 colon) [µM] | TGI (COLO 205 colon) [µM] | GI50 (HOP-92 NSCLC) [µM] | TGI (HOP-92 NSCLC) [µM]
1 | CCNCCNc1cc(-c2ccc(C(F)(F)F)cc2)c(C#N)c2nc3ccccc3n12 | 1.22 | 2.75 | 1.24 | 2.64 | 1.67 | 3.04 | 1.62 | 3.07 | 1.74 | 3.34 | 1.72 | 3.32 | 1.51 | 3.07 | 1.69 | 3.16 | 1.01 | 2.41 | 1.55 | 2.98
2 | C=C(C)CCN[Si](c1ccccc1)(c1ccccc1)C(C)(C)C | – | > 100 | – | > 100 | – | 36.9 | – | 54.4 | – | 36.7 | – | 49.2 | – | 36.3 | – | 32.4 | – | 33.3 | – | 34.2
3 | CN(C)CCNc1ccc(CO)c2oc3ccc(O)cc3c(=O)c12 | – | 61.3 | – | 44 | – | 27.9 | – | 47.5 | – | 26.6 | – | 55.9 | – | 40 | – | 28.4 | – | 21.6 | – | 33.4
4 | CCOC(=O)CCC(=O)C1c2cccc(O)c2C(=O)c2c(O)cc(C)cc21 (stereo not given) | – | 2.9 | – | 2.41 | – | 1.83 | – | 3.91 | – | 2.65 | – | 3.74 | – | 0.563 | – | 1.25 | – | 3.57 | – | 3.04
5 | COc1ccc(C2=C(Cl)c3cc(OC)c(OC)cc3C2Cl)cc1 (stereo not given) | – | 32.9 | – | 30.6 | – | 27.5 | – | 66.5 | – | 46.9 | – | 39.5 | – | 26.4 | – | 30.4 | – | 33.4 | – | 30.3
6 | COc1ccc(C(=O)c2cc(OC)c(OC)c(OC)c2)cc1/C=C/C(=O)c1ccc(F)cc1 | 2.53 | 7.44 | 1.68 | 3.23 | 4.31 | 15.5 | 11.1 | 31.4 | 2.76 | 8.87 | 2.26 | 5.96 | 2.79 | 8.07 | 7.29 | 23.3 | 5.18 | 28.1 | 2.7 | 34.9
7 | Nc1nc(Nc2cccnc2)sc1C(=O)c1ccccc1F | 3.5 | > 42.6 | 2.53 | > 100 | 0.349 | 3.32 | 2.6 | 13.9 | 3.29 | 12.4 | 2.65 | > 23.5 | 3.06 | 32.5 | 1.9 | 4.39 | 1.78 | 4.68 | 4.16 | > 100
8 | COc1ccc(-c2[nH]c3ccc(OC)cc3c2/C=C(\C#N)S(=O)(=O)c2ccccc2)cc1 | 0.534 | > 100 | 1.79 | > 100 | 0.319 | 2.39 | 3.21 | > 100 | 3.13 | > 82.2 | 3.14 | > 100 | 0.653 | 7.69 | > 100 | > 100 | 0.396 | 1.83 | 0.692 | 6.81
9 | NS(=O)(=O)c1ccc(-c2ccc3c(NC(=O)C4CC4)n[nH]c3c2)cc1 | > 25 | > 25 | > 25 | > 25 | > 25 | > 25 | > 25 | > 25 | > 25 | > 25 | > 25 | > 25 | > 25 | > 25 | > 25 | > 25 | > 25 | > 25 | 16.6 | > 25
10 | CC(=O)O[C@H]1CCC2[C@@H]3CC[C@]4(C)CC(=O)C=C[C@]4(C)C3CC[C@@]21C (stereo not given in full) | – | 33.8 | – | > 100 | – | 28.3 | – | > 90.5 | – | 34.3 | – | > 100 | – | 44.3 | – | 67.7 | – | 31.3 | – | > 100
